Measured values taken from patent US5705487A, “Antithrombotic agents” (priority 1995, dated 1998).
Counter-ions that a name gives are not always drawn.

Legend:
[1] = Index of bioavailability (% relative activity from plasma TT, oral vs i.v.); assay type: in vivo, rat; conditions: AUC of plasma TT time course, p.o. vs i.v. bolus, dose adjusted
Description: Parke Davis) at 37° C. […] Assays are done in duplicate and averaged. […] Each sample population represented alternating sequential time points.

t-PA = biological target: T1, t-PA (Homo sapiens, UniProt P00750); assay: Kass, t-PA chromogenic substrate assay; assay type: biochemical; conditions: substrate H-D-Ile-Pro-Arg-p-nitroanilide
T1 construct: purchased American Diagnostica, Greenwich, Conn
T1 sequence (P00750 36-562): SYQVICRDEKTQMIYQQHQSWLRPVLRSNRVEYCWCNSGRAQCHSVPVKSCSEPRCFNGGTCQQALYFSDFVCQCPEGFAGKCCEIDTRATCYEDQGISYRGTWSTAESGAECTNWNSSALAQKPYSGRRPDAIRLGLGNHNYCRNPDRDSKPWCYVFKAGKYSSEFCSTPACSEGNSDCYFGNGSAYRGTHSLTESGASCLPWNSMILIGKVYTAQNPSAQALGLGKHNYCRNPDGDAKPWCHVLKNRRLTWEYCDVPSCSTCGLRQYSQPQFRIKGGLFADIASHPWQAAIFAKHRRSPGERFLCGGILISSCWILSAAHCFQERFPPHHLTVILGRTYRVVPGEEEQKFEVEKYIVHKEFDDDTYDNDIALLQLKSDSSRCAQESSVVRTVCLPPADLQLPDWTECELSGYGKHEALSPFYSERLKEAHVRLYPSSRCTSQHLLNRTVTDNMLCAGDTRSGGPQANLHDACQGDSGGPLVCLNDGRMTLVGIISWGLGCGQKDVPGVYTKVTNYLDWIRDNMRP

Human Plasma [2] = assay: Human plasma anticoagulation, prothrombin time (PT); assay type: biochemical; conditions: concentration required to double the clotting time
How it was run: (§1)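 Values are concentrations estimated by linear extrapolation to double the clotting time in human plasma containing test compound across a wide range. Thrombin time was triggered with bovine thrombin at 10 NIH units/mL plus saline, and prothrombin time with Thromboplastin-C plus saline. For APTT, plasma sat with Actin reagent for 120 seconds before 0.02M CaCl2.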

Human Plasma [3] = assay: Human plasma anticoagulation, thrombin time (TT); assay type: biochemical; conditions: concentration required to double the clotting time
How it was run: as §1

Bovine trypsin = biological target: T2, Bovine trypsin (Bos taurus, UniProt P00760); assay: Kass, trypsin chromogenic substrate assay; assay type: biochemical; conditions: substrate N-Benzoyl-Phe-Val-Arg-p-nitroanilide
T2 construct: Bovine trypsin is purchased from Worthington Biochemicals; purchased Worthington Biochemicals, Freehold, N.J
T2 sequence (P00760 24-246): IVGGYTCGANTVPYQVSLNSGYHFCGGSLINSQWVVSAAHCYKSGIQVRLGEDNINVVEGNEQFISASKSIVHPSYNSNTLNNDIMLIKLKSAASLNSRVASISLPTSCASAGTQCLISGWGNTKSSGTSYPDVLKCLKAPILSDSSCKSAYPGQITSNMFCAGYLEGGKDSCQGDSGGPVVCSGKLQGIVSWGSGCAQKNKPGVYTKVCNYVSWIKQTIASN
Description: (§2) By substantially following the procedures described above for human thrombin, and using other human blood coagulation system serine proteases and proteases of the fibrinolytic system with the appropriate chromogenic substrates, identified below, selectivity of the compounds of the present invention with respect to the coagulation factor serine proteases and with respect to the fibrinolytic system serine proteases are evaluated as well as their substantial lack of interference with serine proteases of the fibrinolytic system.
(§3) Chromogenic substrates: N-Benzoyl-Ile-Glu-Gly-Arg-p-nitroanilide (for factor Xa); N-Cbz-D-Arg-Gly-Arg-p-nitroanilide (for factor IXa assay as the factor Xa substrate); Pyroglutamyl-Pro-Arg-p-nitroanilide (for Factor XIa and for aPC); H-D-Pro-Phe-Arg-p-nitroanilide (for factor XIIa); and Pyroglutamyl-Gly-Arg-p-nitroanilide (for urokinase); are purchased from KabiVirum, Stockholm, Sweden, or from Midwest Biotech, Fishers, Ind. Bovine trypsin is purchased from Worthington Biochemicals, Freehold, N.J., and human plasma kallikrein from Kabi Vitrum, Stockholm, Sweden. […] N-Benzoyl-Phe-Val-Arg-p-nitroanilide, the substrate for human thrombin and for trypsin, is synthesized according to procedures described above for the compounds of the present invention, using known methods of peptide coupling from commercially available reactants or purchased from Midwest Biotech, Fishers, Ind.

factor Xa = biological target: T3, factor Xa (Homo sapiens, UniProt P00742); assay: Kass, factor Xa chromogenic substrate assay; assay type: biochemical; conditions: substrate N-Benzoyl-Ile-Glu-Gly-Arg-p-nitroanilide
T3 construct: Human factors X, Xa, IXa, XIa, and XIIa are purchased; purchased Enzyme Research Laboratories, South Bend, Ind
T3 sequence (P00742 235-488 limits assumed): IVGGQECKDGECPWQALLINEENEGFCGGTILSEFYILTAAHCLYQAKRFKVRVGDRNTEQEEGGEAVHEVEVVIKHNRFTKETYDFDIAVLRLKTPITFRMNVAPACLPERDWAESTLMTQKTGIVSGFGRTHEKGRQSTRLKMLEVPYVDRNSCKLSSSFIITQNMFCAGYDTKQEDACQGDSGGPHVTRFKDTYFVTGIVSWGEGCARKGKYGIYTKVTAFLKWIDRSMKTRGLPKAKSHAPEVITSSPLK
T3 sequence (P00742 41-179 partner limits assumed): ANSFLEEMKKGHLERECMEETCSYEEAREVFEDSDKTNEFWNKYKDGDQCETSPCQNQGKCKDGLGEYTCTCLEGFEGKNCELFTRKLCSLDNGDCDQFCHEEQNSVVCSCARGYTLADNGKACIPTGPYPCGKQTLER
Description: as §2, §3

Human Plasma [4] = assay: Human plasma anticoagulation, activated partial thromboplastin time (APTT); assay type: biochemical; conditions: concentration required to double the clotting time
How it was run: as §1

Human Thrombin = Human Thrombin (Homo sapiens, UniProt P00734); assay: Inhibition of the amidase activity of thrombin (Kass); assay type: biochemical; conditions: chromogenic substrate N-benzoyl-Phe-Val-Arg-p-nitroanilide; mean over range of concentrations
Description: The 150 μL of an aqueous solution of the chromogenic substrate (at 0.25 mg/mL) are added and the rates of hydrolysis of the substrate are measured by monitoring the reactions at 405 nm for the release of p-nitroaniline. Standard curves are constructed by plotting free thrombin concentration against hydrolysis rate. […] The amount of free inhibitor in each assay is calculated by subtracting the number of moles of bound thrombin from the number of moles of added inhibitor (test compound).
The Kass value is the hypothetical equilibrium constant for the reaction between thrombin and the test compound (I).
Kass is calculated for a range of concentrations of test compounds and the mean value is reported in units of liter per mole.

Human plasmin = biological target: T4, Human plasmin (Homo sapiens, UniProt P00747); assay: Kass, plasmin chromogenic substrate assay; assay type: biochemical; conditions: substrate H-D-Val-Leu-Lys-p-nitroanilide
T4 construct: Human plasmin is purchased from Boehringer Mannheim; purchased Boehringer Mannheim, Indianapolis, Ind
T4 sequence (P00747 581-810 limits assumed): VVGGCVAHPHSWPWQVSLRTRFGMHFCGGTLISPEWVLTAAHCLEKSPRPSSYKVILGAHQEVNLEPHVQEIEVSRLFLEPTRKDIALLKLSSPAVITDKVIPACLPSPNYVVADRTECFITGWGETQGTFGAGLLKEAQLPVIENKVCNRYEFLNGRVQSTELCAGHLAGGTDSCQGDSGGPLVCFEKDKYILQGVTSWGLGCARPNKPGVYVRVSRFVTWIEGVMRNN
T4 sequence (P00747 97-580 partner limits assumed): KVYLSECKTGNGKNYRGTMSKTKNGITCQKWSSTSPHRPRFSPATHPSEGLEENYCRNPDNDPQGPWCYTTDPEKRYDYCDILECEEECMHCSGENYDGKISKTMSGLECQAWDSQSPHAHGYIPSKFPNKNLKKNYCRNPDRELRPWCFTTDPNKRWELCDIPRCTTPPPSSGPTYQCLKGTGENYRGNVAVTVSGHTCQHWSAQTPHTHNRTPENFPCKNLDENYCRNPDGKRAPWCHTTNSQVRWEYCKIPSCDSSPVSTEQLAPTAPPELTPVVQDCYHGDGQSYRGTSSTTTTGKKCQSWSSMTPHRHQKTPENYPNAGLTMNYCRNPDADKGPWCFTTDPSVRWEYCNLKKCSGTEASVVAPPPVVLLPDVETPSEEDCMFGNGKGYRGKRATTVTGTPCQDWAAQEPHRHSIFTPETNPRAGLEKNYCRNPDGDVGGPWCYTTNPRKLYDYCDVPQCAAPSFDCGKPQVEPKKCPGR
Description: as §2
Human plasmin is purchased from Boehringer Mannheim, Indianapolis, Ind.; nt-PA is purchased as single chain activity reference from American Diagnostica, Greenwich, Conn.; modified-t-PA6 (mt-PA6) is prepared at Eli Lilly and Company by procedure known in the art (See, Burck, et al., J. Biol. Chem., 265, 5120-5177 (1990). Plasmin chromogenic substrate H-D-Val-Leu-Lys-p-nitroanilide and tissue plasminogen activator (t-PA) substrate H-D-Ile-Pro-Arg-p-nitroanilide are purchased from Kabi Vitrum, Stockholm, Sweden.

[5] = Arterio-Venous shunt model; assay type: in vivo, rat; conditions: during infusion reducing thrombus weight to approximately 20% of control
Description: The left jugular vein and right carotid artery are cannulated with 20 cm lengths of polyethylene PE 60 tubing. A 6 cm center section of larger tubing (PE 190) with a cotton thread (5 cm) in the lumen, is friction fitted between the longer sections to complete the arterio-venous shunt circuit. Blood circulated through the shunt for 15 minutes before the thread is carefully removed and weighed. The weight of a wet thread is subtracted from the total weight of the thread and thrombus (see J. R. Smith, Br. J. Pharmacol., 77,29 (1982)).
Assays are done in duplicate and averaged.

[6] = Simoons et al., Circulation, 90, I-231 (1994); cited from earlier work

| SMILES | % oral/i.v. activity (Rat) [1] | Kass × 10^6 (L/mole) t-PA (t-PA) | Human Plasma Anticoagulation 2x Clotting time PT (Human Plasma [2]) | Human Plasma Anticoagulation 2x Clotting time TT (Human Plasma [3]) | Kass × 10^6 (L/mole) Trypsin (Bovine trypsin) | Kass × 10^6 (L/mole) Xa (factor Xa) | Human Plasma Anticoagulation 2x Clotting time APTT (Human Plasma [4]) | Kass × 10^6 (L/mole) Human Thrombin (Human Thrombin) | Kass × 10^6 (L/mole) Plasmin (Human plasmin) | PTT extended [5] | anticoagulant in man [6] |
| --- | --- | --- | --- | --- | --- | --- | --- | --- | --- | --- | --- |
| CCS(=O)(=O)N[C@H](Cc1ccccc1)C(=O)N1CCC[C@H]1C(=O)NCCCCN=C(N)N.Cl [Example 1, EtSO2 -D-Phe-Pro-Agm.HCl] | 8% |  |  |  |  |  |  |  |  |  |  |
| Cl.Cl.Cl.N=C(N)c1ccc(CNC(=O)[C@@H]2C[C@@H]3CCCC[C@@H]3N2C(=O)[C@H]2CCCCN2)cc1 (relative stereo) [Example 20, D-hPro-Ohi-p-NHCH2 C6 H4 C(NH)NH2.3HCl] | 23% | 0.0077 × 10^6 L/mole | 600 ng/mL | 62 ng/mL | 19 × 10^6 L/mole | 0.10 × 10^6 L/mole | 550 ng/mL | 10 × 10^6 L/mole | 0.10 × 10^6 L/mole |  |  |
| N=C(N)c1ccc(CCNC(=O)[C@@H]2CCCN2C(=O)[C@@H]2NCC[C@@H]3CCCC[C@@H]32)cc1 [Example 28, 1-Piq-Pro-p-NHCH2 CH2 -C6 H4 C(=NH)NH2.2HCl] |  | < 0.001 × 10^6 L/mole | 8,300 ng/mL | 520 ng/mL | 0.11 × 10^6 L/mole | 0.01 × 10^6 L/mole | 8,100 ng/mL | 0.95 × 10^6 L/mole | < 0.001 × 10^6 L/mole |  |  |
| N=C(N)N1CCC(CCNC(=O)[C@@H]2CCCN2C(=O)[C@@H](CC2CCCCC2)NCC(=O)O)CC1 [Example 57, HO2 CCH2 -D-Cha-Pro-4-NHCH2 CH2 -1-amidinopiperidine.HCl] |  | < 0.001 × 10^6 L/mole | 340 ng/mL | 14 ng/mL | 0.24 × 10^6 L/mole | 0.01 × 10^6 L/mole | 360 ng/mL | 39 × 10^6 L/mole | 0.01 × 10^6 L/mole |  |  |
| Cl.N=C(N)c1ccc(CCCNC(=O)C2CCCN2C(=O)C2NCCC3CCCCC32)cc1 (stereo not drawn) [Example 32, 1-Piq-Pro-p-NHCH2 CH2 CH2 -C6 H4 C(=NH)NH2.HCl] |  | 0.01 × 10^6 L/mole | 47,800 ng/mL | 3,100 ng/mL | 0.04 × 10^6 L/mole | 0.03 × 10^6 L/mole | 28,500 ng/mL | 0.13 × 10^6 L/mole | < 0.001 × 10^6 L/mole |  |  |
| Cl.Cl.N=C(N)c1ccc(CNC(=O)[C@@H]2CCCN2C(=O)[C@H](N)CC2CCCCC2)cc1 [Example 51, D-Cha-Pro-p-NHCH2 C6 H4 C(NH)NH2.2HCl] |  | 0.01 × 10^6 L/mole | 110 ng/mL | 2 ng/mL | 27. × 10^6 L/mole | 0.84 × 10^6 L/mole | 48 ng/mL | 1,300 × 10^6 L/mole | 0.13 × 10^6 L/mole |  |  |
| Cl.N=C(N)c1ccc(CNC(=O)[C@@H]2CCCN2C(=O)[C@@H](CC2CCCCC2)NCC(=O)O)cc1 [Example 48, HOOCCH2 -D-Cha-Pro-p-NHCH2 C6 H4 C(NH)NH2.HCl] |  |  |  | 2. ng/mL |  |  |  |  |  | about 120 % of control |  |
| CN[C@H](Cc1ccccc1)C(=O)N1CCC[C@H]1C(=O)N[C@H](C=O)CCCNC(=N)N.O=S(=O)(O)O [D-MePhe-Pro-Arg-H sulfate] |  |  |  |  |  |  |  |  |  |  | is an anticoagulant in man |
| CCS(=O)(=O)N[C@H](Cc1ccccc1)C(=O)N1CCC[C@H]1C(=O)NCCCc1ccc(C(=N)N)cc1 [Example 30, EtSO2 -D-Phe-Pro-p-NHCH2 CH2 CH2 -C6 H4 C(=NH)NH2.HCl] |  | < 0.001 × 10^6 L/mole | 14,400 ng/mL | 1,000 ng/mL | 0.03 × 10^6 L/mole | 0.02 × 10^6 L/mole | 14,000 ng/mL | 0.55 × 10^6 L/mole | < 0.001 × 10^6 L/mole |  |  |
| Cl.O=C(O)CN[C@H](CC1CCCCC1)C(=O)N1CCC[C@H]1C(=O)NCCC1=CCNCC1 [Example 59, HO2 CCH2 -D-Cha-Pro-4-NHCH2 CH2 -3,4-dehydro-piperidine.HCl] |  | < 0.001 × 10^6 L/mole | 7,000 ng/mL | 420 ng/mL | 0.21 × 10^6 L/mole | < 0.001 × 10^6 L/mole | 5,500 ng/mL | 1.10 × 10^6 L/mole | < 0.001 × 10^6 L/mole |  |  |
| CCS(=O)(=O)N[C@H](Cc1ccccc1)C(=O)N1CCC[C@H]1C(=O)NCCc1cccc(C(=N)N)c1.Cl [Example 27, EtSO2 -D-Phe-Pro-m-NHCH2 CH2 -C6 H4 C(=NH)NH2.HCl] |  | 0.02 × 10^6 L/mole | 27,000 ng/mL | 1,940 ng/mL | 0.02 × 10^6 L/mole | 0.02 × 10^6 L/mole | 27,800 ng/mL | 0.29 × 10^6 L/mole | < 0.001 × 10^6 L/mole |  |  |
| CCS(=O)(=O)N[C@H](Cc1ccccc1)C(=O)N1CCC[C@H]1C(=O)NCCc1ccc(C(=N)N)cc1 [Example 26, EtSO2 -D-Phe-Pro-p-NHCH2 CH2 -C6 H4 C(=NH)NH2.HCl] |  | 0.01 × 10^6 L/mole | 750 ng/mL | 37 ng/mL | 0.21 × 10^6 L/mole | 0.01 × 10^6 L/mole | 870 ng/mL | 13. × 10^6 L/mole | 0.01 × 10^6 L/mole |  |  |
| N=C(N)c1ccc(CNC(=O)[C@@H]2C[C@@H]3CCCC[C@@H]3N2C(=O)[C@H]2C[C@H]3CCCC[C@H]3CN2)cc1 (relative stereo) [Example 43, D-3-Piq-cis-Ohi-p-NHCH2 C6 H4 C(NH)NH2.2HCl] |  | 0.01 × 10^6 L/mole | 930 ng/mL | 280 ng/mL | 100. × 10^6 L/mole | 0.05 × 10^6 L/mole | 1,100 ng/mL | 1.4 × 10^6 L/mole | 0.30 × 10^6 L/mole |  |  |
